By logP is commonly meant the decadic logarithm of the partition coefficient of the neutral form, usually between octanol and water. With `CC(C)CCn1cnnn1`, the logP turned out to be 1.29.
Regarding `O=C(O)CC1CCCCC1`, the logP amounted to 2.31.
Turning to `CCCCN(CCCC)C(=O)CCC(=O)O`, the lipophilicity (logP) worked out at 2.3.
For the compound `CCC=C(CCC)C(=O)O`, the logP came to 2.44.
In the case of `CCC(CC)CC(=O)O`, the logP was 2.19.
`C/C=C/C(=C\CC)C(=O)O` displayed a logP of 2.27.
For `CCCCCCCc1nn[nH]n1` the value was 2.01; for `CC1(C(=O)O)CCCCC1`, 2.38; for `CCCC(CCC)C(=O)O`, 2.57.
Regarding `CCCCC(CCCC)C(=O)O`, the lipophilicity (logP) worked out at 3.34.
`CCC(C)(C)C(=O)O` returned a logP of 1.9.
For `CCCC(CC(C)=O)C(=O)O` (configuration not stated) the value was 1.31.

For the origin of these results see the SangsterLogP compilation.
